Results on 14 compounds are retold here after ChEMBL document CHEMBL3217541, “Optimisation of aqueous solubility in a series of G protein coupled receptor 119 (GPR119) agonists” (Medchemcomm, 2013).

Series [1] is described as follows: physchem. The following applies: aqueous phosphate buffer, pH 7.4.
A further series in a line: in vitro. The conditions noted are these: human, liver microsomes.
A short description of series [2]: physchem. The following applies: octanol/phosphate buffer, pH 7.4.
Series [3] concerns the target T1, Glucose-dependent insulinotropic receptor (Mus musculus, UniProt Q7TQP3).
T1 sequence (Q7TQP3 whole entry): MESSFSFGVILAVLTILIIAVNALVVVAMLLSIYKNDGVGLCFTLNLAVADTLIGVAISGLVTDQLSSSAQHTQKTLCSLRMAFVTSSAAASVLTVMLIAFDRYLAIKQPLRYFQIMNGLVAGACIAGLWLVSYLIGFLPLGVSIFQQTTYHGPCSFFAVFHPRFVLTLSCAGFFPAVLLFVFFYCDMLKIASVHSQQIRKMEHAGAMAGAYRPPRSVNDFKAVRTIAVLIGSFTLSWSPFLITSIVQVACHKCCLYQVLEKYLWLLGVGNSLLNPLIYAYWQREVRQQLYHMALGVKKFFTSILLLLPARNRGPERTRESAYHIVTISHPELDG
As to the kind of experiment: Agonist activity at mouse GPR119 transfected in HEK293 cells assessed as cAMP accumulation after 45 mins incubation by HTRF assay. Type of series: functional, cell-based.

Series [4] concerns the target T2, Glucose-dependent insulinotropic receptor (Homo sapiens, UniProt Q8TDV5).
T2 sequence (Q8TDV5 whole entry): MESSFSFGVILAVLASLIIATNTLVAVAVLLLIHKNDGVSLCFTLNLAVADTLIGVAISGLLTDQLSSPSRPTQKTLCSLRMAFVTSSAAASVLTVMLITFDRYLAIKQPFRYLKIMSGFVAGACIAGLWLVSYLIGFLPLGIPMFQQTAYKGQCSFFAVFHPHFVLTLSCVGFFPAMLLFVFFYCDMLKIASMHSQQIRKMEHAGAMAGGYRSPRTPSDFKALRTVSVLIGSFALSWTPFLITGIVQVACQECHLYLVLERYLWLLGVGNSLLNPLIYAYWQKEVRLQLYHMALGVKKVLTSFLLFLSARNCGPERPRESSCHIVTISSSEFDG
As to the kind of experiment: Agonist activity at human GPR119 transfected in HEK293 cells assessed as cAMP accumulation after 45 mins incubation by HTRF assay. Type of series: functional, cell-based.

Series [5] in a line: Apparent permeability across basolateral to apical side of human Caco2 cells. In kind it is ADME, cell-based. The conditions noted are these: Caco-2.
Series [6] in a line: Chemical stability of the compound at pH 10 at 10 uM after 18 hrs incubation at 65 degC. Type of series: physicochemical. The conditions noted are these: buffer.
Series [7] is described as follows: Chemical stability of the compound at pH 8 at 10 uM after 18 hrs incubation at 65 degC. Type of series: physicochemical. The following applies: buffer.
Series [8] in a line: Chemical stability of the compound at pH 6 at 10 uM after 18 hrs incubation at 65 degC. In kind it is physicochemical. The following applies: buffer.
Series [9] is described as follows: Chemical stability of the compound at pH 4 at 10 uM after 18 hrs incubation at 65 degC. Type of series: physicochemical. The following applies: buffer.
Series [10] can be described thus: Chemical stability of the compound at pH 1 at 10 uM after 18 hrs incubation at 65 degC. In kind it is physicochemical. The following applies: buffer.
Series [11] has as its target Voltage-gated inwardly rectifying potassium channel KCNH2 (Homo sapiens, UniProt Q12809). The experiment in a line: Inhibition of human ERG.
The next series concerns the target Cytochrome P450 2D6 (Homo sapiens, UniProt P10635). The experiment in a line: Inhibition of CYP2D6 (unknown origin). In kind it is ADME.
For another series, the target named is Cytochrome P450 3A4 (Homo sapiens, UniProt P08684). As to the kind of experiment: Inhibition of CYP3A4 (unknown origin). Type of series: ADME.
For the next series, the target named is Cytochrome P450 2C9 (Homo sapiens, UniProt P11712). As to the kind of experiment: Inhibition of CYP2C9 (unknown origin). In kind it is ADME.
The next series has as its target Cytochrome P450 2C19 (Homo sapiens, UniProt P33261). The experiment in a line: Inhibition of CYP2C19 (unknown origin). In kind it is ADME.
The target in a further series is T3, Cytochrome P450 1A2 (Homo sapiens, UniProt P05177).
T3 sequence (P05177 whole entry): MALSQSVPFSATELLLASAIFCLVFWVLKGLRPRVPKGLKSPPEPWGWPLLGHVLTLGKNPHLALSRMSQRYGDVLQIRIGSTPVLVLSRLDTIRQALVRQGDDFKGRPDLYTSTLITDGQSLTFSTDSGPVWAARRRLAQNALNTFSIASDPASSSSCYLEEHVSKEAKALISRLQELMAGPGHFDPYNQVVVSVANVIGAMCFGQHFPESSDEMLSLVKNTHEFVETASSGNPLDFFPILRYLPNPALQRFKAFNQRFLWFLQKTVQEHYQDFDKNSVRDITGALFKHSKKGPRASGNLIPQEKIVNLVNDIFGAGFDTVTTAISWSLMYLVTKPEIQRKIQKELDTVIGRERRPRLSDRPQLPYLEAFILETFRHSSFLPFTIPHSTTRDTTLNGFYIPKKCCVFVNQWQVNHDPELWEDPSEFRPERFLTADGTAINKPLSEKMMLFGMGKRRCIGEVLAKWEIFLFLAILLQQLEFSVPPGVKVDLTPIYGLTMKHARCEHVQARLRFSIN
As to the kind of experiment: Inhibition of CYP1A2 (unknown origin). In kind it is ADME.

Series [12] in a line: Apparent permeability across apical to basolateral side of human Caco2 cells. The conditions noted are these: Caco-2. In kind it is ADME, cell-based.
A short description of series [13]: Fraction unbound in mouse plasma. In kind it is ADME, cell-free.
Series [14] can be described thus: Fraction unbound in rat plasma. In kind it is ADME, cell-free.

Structures are written as SMILES. Converted amounts (≈) assume the structure as drawn.

Cytochrome P450 2C19, sequence (P33261 whole entry): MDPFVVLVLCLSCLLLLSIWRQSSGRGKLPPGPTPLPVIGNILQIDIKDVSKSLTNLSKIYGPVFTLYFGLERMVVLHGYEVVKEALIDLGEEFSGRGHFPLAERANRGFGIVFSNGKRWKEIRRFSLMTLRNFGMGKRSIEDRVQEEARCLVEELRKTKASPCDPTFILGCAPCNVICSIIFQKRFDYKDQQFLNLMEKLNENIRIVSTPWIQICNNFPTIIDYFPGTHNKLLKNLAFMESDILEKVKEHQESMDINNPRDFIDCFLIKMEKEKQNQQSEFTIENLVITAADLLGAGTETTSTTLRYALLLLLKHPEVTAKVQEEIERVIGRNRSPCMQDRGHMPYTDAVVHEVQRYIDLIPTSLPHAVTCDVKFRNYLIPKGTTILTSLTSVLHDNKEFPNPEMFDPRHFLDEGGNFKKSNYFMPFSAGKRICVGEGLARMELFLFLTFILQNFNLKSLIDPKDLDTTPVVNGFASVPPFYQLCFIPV
Cytochrome P450 2D6, sequence (P10635 whole entry): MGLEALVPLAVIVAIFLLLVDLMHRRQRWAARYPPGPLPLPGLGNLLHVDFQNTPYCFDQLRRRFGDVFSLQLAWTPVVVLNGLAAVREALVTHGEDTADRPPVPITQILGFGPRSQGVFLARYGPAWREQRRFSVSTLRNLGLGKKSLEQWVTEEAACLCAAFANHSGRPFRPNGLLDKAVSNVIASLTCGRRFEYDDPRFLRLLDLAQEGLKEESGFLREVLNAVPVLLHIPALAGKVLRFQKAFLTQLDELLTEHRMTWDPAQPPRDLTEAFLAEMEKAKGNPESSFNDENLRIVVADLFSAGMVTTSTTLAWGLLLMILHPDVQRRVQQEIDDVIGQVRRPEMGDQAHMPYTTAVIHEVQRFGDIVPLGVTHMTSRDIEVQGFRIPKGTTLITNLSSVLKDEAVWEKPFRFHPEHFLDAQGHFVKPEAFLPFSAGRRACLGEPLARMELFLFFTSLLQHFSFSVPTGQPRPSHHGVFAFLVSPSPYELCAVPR
Cytochrome P450 2C9, sequence (P11712 whole entry): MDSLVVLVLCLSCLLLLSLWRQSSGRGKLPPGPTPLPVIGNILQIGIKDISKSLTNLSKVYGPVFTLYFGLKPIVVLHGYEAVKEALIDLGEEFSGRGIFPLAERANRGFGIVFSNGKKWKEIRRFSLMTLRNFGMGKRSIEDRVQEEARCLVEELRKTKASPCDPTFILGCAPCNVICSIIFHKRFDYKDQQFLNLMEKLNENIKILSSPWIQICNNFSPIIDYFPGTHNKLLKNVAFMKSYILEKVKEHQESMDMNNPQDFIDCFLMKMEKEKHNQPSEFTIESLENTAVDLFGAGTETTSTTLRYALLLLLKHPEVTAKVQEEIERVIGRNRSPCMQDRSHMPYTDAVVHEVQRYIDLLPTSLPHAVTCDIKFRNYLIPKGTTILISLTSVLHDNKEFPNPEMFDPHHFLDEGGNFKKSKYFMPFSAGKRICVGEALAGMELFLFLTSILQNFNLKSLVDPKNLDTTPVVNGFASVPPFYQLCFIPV
Cytochrome P450 3A4, sequence (P08684 whole entry): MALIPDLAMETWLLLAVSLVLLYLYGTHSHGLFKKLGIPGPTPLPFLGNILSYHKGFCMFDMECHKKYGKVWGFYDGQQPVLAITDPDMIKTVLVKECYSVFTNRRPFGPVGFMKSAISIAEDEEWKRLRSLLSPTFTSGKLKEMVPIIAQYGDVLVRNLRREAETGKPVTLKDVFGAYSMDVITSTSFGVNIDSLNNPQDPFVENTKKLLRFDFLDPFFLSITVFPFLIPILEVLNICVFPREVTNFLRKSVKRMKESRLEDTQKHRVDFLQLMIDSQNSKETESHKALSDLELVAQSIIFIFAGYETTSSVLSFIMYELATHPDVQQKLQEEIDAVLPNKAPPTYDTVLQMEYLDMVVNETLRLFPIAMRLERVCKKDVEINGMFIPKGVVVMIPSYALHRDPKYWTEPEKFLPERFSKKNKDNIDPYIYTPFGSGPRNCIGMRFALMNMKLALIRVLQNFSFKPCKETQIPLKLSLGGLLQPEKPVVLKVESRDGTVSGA
Voltage-gated inwardly rectifying potassium channel KCNH2, sequence (Q12809 whole entry): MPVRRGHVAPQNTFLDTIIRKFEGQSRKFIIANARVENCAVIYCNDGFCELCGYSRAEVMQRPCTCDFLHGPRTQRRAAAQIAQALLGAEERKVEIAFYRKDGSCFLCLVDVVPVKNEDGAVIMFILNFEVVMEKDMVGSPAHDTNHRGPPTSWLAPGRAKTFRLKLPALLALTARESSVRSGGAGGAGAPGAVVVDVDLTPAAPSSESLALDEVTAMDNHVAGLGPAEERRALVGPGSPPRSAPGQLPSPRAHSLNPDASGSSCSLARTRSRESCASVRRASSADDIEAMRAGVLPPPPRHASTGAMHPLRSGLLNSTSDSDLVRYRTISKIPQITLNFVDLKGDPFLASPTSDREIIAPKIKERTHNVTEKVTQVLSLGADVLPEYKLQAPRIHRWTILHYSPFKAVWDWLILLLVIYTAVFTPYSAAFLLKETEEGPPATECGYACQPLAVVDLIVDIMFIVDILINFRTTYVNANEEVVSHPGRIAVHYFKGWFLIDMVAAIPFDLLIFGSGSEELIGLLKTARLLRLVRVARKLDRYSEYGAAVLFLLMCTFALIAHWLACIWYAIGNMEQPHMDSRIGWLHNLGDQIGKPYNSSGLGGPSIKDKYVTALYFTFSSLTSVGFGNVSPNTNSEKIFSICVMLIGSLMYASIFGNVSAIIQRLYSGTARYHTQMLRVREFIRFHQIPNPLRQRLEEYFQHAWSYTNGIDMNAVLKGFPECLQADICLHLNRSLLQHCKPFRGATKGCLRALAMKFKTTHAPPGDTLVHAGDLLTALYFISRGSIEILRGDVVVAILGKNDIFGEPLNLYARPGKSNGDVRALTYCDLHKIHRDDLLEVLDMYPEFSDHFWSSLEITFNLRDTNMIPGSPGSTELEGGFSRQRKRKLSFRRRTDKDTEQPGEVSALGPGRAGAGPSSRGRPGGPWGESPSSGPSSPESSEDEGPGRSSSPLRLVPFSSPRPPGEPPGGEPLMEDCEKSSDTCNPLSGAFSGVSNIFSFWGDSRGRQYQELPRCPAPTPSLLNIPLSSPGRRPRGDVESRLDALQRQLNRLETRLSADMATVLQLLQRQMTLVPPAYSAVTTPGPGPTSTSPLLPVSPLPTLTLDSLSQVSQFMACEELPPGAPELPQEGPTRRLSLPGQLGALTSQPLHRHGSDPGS

The compound `C[C@@H]1CN(C(=O)OC2(C(F)(F)F)CCOC2)CCN1c1ncc(OCc2ccncc2C#N)cn1` (some centres undefined) had a solubility at 24 h in “physchem [1]” of 34 µM (≈ 16.7 µg/mL). The microsomal CLint in “in vitro” was 107 µL/min/mg. Moreover, the logD in “physchem [2]” came out at 3.1.
`N#Cc1cnccc1COc1cnc(N2CCN(C(=O)OC3CCOC3)CC2)nc1` (racemic) yielded a solubility at 24 h in the series “physchem [1]” of 180 µM (≈ 73.9 µg/mL).
For `C[C@@H]1CN(C(=O)OC2(C)COC2)CCN1c1ncc(OCc2ccncc2C#N)cn1`, the values for the EC50 in [3] and in [4] were 631 nM and 200 nM, respectively. In “physchem [1]”, this compound returned a solubility at 24 h greater than 860 µM. Further, in “in vitro”, the microsomal CLint was determined as 23 µL/min/mg.
In turn, `C[C@@H]1CN(C(=O)OC(C)(C)C)CCN1c1ncc(OCc2ccncc2C#N)cn1` showed a microsomal CLint in “in vitro” of 43 µL/min/mg.
Consider `C[C@@H]1CN(C(=O)OC2(C(F)(F)F)COC2)CCN1c1ncc(OCc2ccncc2C#N)cn1`, for which the EC50 was 158 nM in [3] and 20 nM in [4]. Besides, in series [5], the Papp B→A amounted to 9 ×10⁻⁶ cm/s. Besides, the half-life at 10 µM is 0.96 h in series [6]; greater than 240 h in series [7]; greater than 240 h in series [8]; greater than 240 h in [9]; 9.84 h in series [10]. The INH in series [11] is 12 µM; on Cytochrome P450 2D6 it was greater than 25 µM; on Cytochrome P450 3A4, greater than 25 µM; at Cytochrome P450 2C9, greater than 25 µM; on Cytochrome P450 2C19 it was greater than 25 µM; on Cytochrome P450 1A2 it was greater than 25 µM. For the same compound, the Papp A→B in [12] is 16 ×10⁻⁶ cm/s. Further, the values for the fraction unbound in series [13] and in [14] were 0.081 and 0.047, respectively. Also, the solubility at 24 h in “physchem [1]” came out at 110 µM (≈ 52.6 µg/mL). In addition, the microsomal CLint in “in vitro” stood at 44 µL/min/mg. This compound displayed a logD in “physchem [2]” of 2.5.
`C[C@@H]1CN(c2noc(C3(C)COC3)n2)CCN1c1ncc(OCc2ccncc2C#N)cn1`: the EC50 in series [3] is 100 nM; in [4], 63.1 nM. In the series “physchem [1]”, this compound had a solubility at 24 h of 59 µM (≈ 26.5 µg/mL). The microsomal CLint in “in vitro” was 43 µL/min/mg. This compound returned a logD in “physchem [2]” of 3.
`C[C@@H]1CN(c2nnc(C(F)(F)F)o2)CCN1c1ncc(OCc2ccncc2C#N)cn1`: the half-life at 10 µM in series [6] was 13.4 h; in series [7], greater than 240 h; in series [8], greater than 240 h; in series [9], greater than 240 h; in series [10], 10.8 h.
On to `C[C@@H]1CN(c2noc(C3COCCO3)n2)CCN1c1ncc(OCc2ccncc2C#N)cn1` (some centres undefined), for which the results for the EC50 in series [3] and in series [4] were 631 nM and 100 nM, respectively. Further, the solubility at 24 h in the series “physchem [1]” worked out at 30 µM (≈ 13.9 µg/mL). The microsomal CLint in the series “in vitro” turned out to be 26 µL/min/mg. The compound also gave a logD in “physchem [2]” of 2.3.
`C[C@@H]1CN(C(=O)OC2COC2)CCN1c1ncc(OCc2ccncc2C#N)cn1` gave a solubility at 24 h in the series “physchem [1]” greater than 2200 µM. The same compound came in with a microsomal CLint in the series “in vitro” of 5 µL/min/mg. In addition, the logD in the series “physchem [2]” turned out to be 1.6.
Regarding `CC(C)c1nc(N2CCN(c3ncc(OCc4ccncc4C#N)cn3)[C@H](C)C2)no1`, the INH in series [11] was 10 µM; on Cytochrome P450 2D6 it was greater than 25 µM; at Cytochrome P450 3A4, greater than 25 µM; on Cytochrome P450 2C9, greater than 25 µM; at Cytochrome P450 2C19 it was greater than 25 µM; on Cytochrome P450 1A2, greater than 25 µM. This compound displayed a solubility at 24 h in the series “physchem [1]” of 6 µM (≈ 2.52 µg/mL). Moreover, the microsomal CLint in the series “in vitro” came to 23 µL/min/mg.
As to `CC(C)C1(OC(=O)N2CCN(c3ncc(OCc4ccncc4C#N)cn3)[C@H](C)C2)COC1`, the EC50 in [3] was 501 nM; in [4], 200 nM. This compound displayed a microsomal CLint in “in vitro” of 308 µL/min/mg.
As to `C[C@@H]1CN(C(=O)OC2CCOCC2)CCN1c1ncc(OCc2ccncc2C#N)cn1`, the EC50 in series [3] is greater than 7940 nM; in [4] it was 631 nM. In the series “physchem [1]”, the solubility at 24 h came to 110 µM (≈ 48.2 µg/mL). The same compound gave a microsomal CLint in the series “in vitro” of 37 µL/min/mg. In the series “physchem [2]”, this compound gave a logD of 2.2.
Take `C[C@@H]1CN(c2noc(C(C)(C)O)n2)CCN1c1ncc(OCc2ccncc2C#N)cn1`: the EC50 in [3] and in series [4] was 631 nM throughout. The solubility at 24 h in the series “physchem [1]” is 8 µM (≈ 3.49 µg/mL). In “in vitro”, this compound yielded a microsomal CLint of 14 µL/min/mg. For the same compound, in the series “physchem [2]”, the logD was determined as 2.4.
Turning to `CC(C)(C)OC(=O)N1CCN(c2ncc(OCc3ccc(S(C)(=O)=O)cc3)cn2)CC1`, the half-life at 10 µM is less than 0.144 h in series [6]; 2.64 h in series [7]; 2.88 h in series [8]; 1.44 h in series [9]; less than 1.8 h in series [10]. This compound showed a solubility at 24 h in “physchem [1]” of 0.03 µM (≈ 0.0135 µg/mL).
